Assay: xn = mol fraction of the nth substance listed

O=C([O-])[O-].[Na+].[Na+] + [2H]O[2H]
viscosity [mPa·s], 101 kPa
Conditions | x1 = 0.009 | x1 = 0.018 | x1 = 0.031 | x1 = 0.041
298.15 K | 1.4 | 1.847 | 2.881 | 4.233
308.15 K | 1.094 | 1.443 | 2.174 | 3.115
318.15 K | 0.895 | 1.167 | 1.725 | 2.435

COc1ccccc1N + CCCCO
viscosity [mPa·s], 101 kPa
Conditions | x1 = 0.1085 | x1 = 0.1811 | x1 = 0.2605 | x1 = 0.3474 | x1 = 0.4771 | x1 = 0.5867 | x1 = 0.6665 | x1 = 0.7526 | x1 = 0.8949
303.15 K | 2.547 | 2.719 | 2.91 | 3.123 | 3.448 | 3.729 | 3.943 | 4.18 | 4.597
308.15 K | 2.267 | 2.431 | 2.611 | 2.813 | 3.12 | 3.388 | 3.59 | 3.815 | 4.205
313.15 K | 2.036 | 2.194 | 2.365 | 2.554 | 2.846 | 3.103 | 3.297 | 3.516 | 3.895
318.15 K | 1.83 | 1.981 | 2.143 | 2.322 | 2.598 | 2.847 | 3.036 | 3.247 | 3.609

COc1ccccc1N + COCCO
303.15 K, 101 kPa
Conditions | viscosity [mPa·s]
x1 = 0.0724 | 2.225
x1 = 0.1494 | 2.507
x1 = 0.2314 | 2.808
x1 = 0.319 | 3.132
x1 = 0.4127 | 3.478
x1 = 0.5131 | 3.794
x1 = 0.6211 | 4.083
x1 = 0.7376 | 4.343
x1 = 0.8635 | 4.614

COC(C)=O + CC(C)O
298.15 K
Conditions | viscosity [mPa·s]
101 kPa, x2 = 0.0988 | 0.385
101 kPa, x2 = 0.2003 | 0.416
101 kPa, x2 = 0.3227 | 0.453
101 kPa, x2 = 0.3967 | 0.484
101 kPa, x2 = 0.4976 | 0.53
101 kPa, x2 = 0.666 | 0.668
101 kPa, x2 = 0.7895 | 0.933
101 kPa, x2 = 0.7978 | 0.96
101 kPa, x2 = 0.9011 | 1.37
101.33 kPa, x1 = 0.0598 | 1.642
101.33 kPa, x1 = 0.1684 | 1.101
101.33 kPa, x1 = 0.2671 | 0.83
101.33 kPa, x1 = 0.3634 | 0.671
101.33 kPa, x1 = 0.4646 | 0.571
101.33 kPa, x1 = 0.5621 | 0.504
101.33 kPa, x1 = 0.6773 | 0.448
101.33 kPa, x1 = 0.7619 | 0.417
101.33 kPa, x1 = 0.866 | 0.394

c1ccc2ncccc2c1 + COc1ccccc1O
303.15 K, 101 kPa
Conditions | viscosity [mPa·s]
x1 = 0.1 | 5.95
x1 = 0.2 | 8.05
x1 = 0.3 | 10.04
x1 = 0.333 | 10.54
x1 = 0.36 | 10.97
x1 = 0.38 | 11.45
x1 = 0.4 | 11.65
x1 = 0.44 | 11.66
x1 = 0.46 | 11.57
x1 = 0.5 | 10.95
x1 = 0.6 | 8.98
x1 = 0.7 | 6.77
x1 = 0.8 | 4.87
x1 = 0.9 | 3.88

COC(C)=O + COCCO
viscosity [mPa·s], 101 kPa
Conditions | x2 = 0.0993 | x2 = 0.2004 | x2 = 0.2993 | x2 = 0.4009 | x2 = 0.4996 | x2 = 0.6014 | x2 = 0.7013 | x2 = 0.8006 | x2 = 0.9001
298.15 K | 0.429 | 0.484 | 0.549 | 0.636 | 0.729 | 0.862 | 1.012 | 1.218 | 1.453
303.15 K | 0.407 | 0.457 | 0.517 | 0.596 | 0.679 | 0.797 | 0.929 | 1.112 | 1.317
308.15 K | 0.387 | 0.432 | 0.486 | 0.556 | 0.632 | 0.738 | 0.858 | 1.025 | 1.2

COCCOC + Nc1ccccc1
298.15 K, 101 kPa
Conditions | viscosity [mPa·s]
x1 = 0.103 | 2.958
x1 = 0.2053 | 2.326
x1 = 0.3069 | 1.85
x1 = 0.4079 | 1.488
x1 = 0.5082 | 1.194
x1 = 0.6079 | 0.96
x1 = 0.7068 | 0.778
x1 = 0.8052 | 0.625
x1 = 0.9029 | 0.505

O.O.O=C(O)c1cc(S(=O)(=O)O)ccc1O + O
viscosity [mPa·s], 101 kPa
Conditions | x1 = 0.0004118 | x1 = 0.0005979 | x1 = 0.0007679 | x1 = 0.001076
298.15 K | 0.8998 | 0.9032 | 0.907 | 0.9134
308.15 K | 0.7268 | 0.7304 | 0.7332 | 0.7386
318.15 K | 0.597 | 0.6063 | 0.6087 | 0.6128

COCCOC + Clc1ccccc1
298.15 K, 101 kPa
Conditions | viscosity [mPa·s]
x1 = 0.1219 | 0.721
x1 = 0.2379 | 0.685
x1 = 0.3487 | 0.649
x1 = 0.4543 | 0.611
x1 = 0.5554 | 0.573
x1 = 0.652 | 0.537
x1 = 0.7445 | 0.503
x1 = 0.8332 | 0.47
x1 = 0.9183 | 0.439

Source: the CheMixHub viscosity set
